{
  "source": "patent US10238710B2",
  "about": "“Peptide having anti-inflammatory, osteogenic and hair growth promoting activities, and use of same” (CAREGEN CO., LTD., priority 2014, dated 2019)",
  "key": {"[1]": {"test_system": "alkaline phosphatase (ALP)", "conditions": "MC3T3-E1, three days, RT-PCR", "procedure": "MC3T3-E1 (mouse osteoblast line) cells were seeded on a 6-well plate at a cell density of 1×10^5 cells/well. The cells incubated overnight were treated with the peptides at different concentrations (10 and 50 μg/ml), followed by incubation in an incubator at 37° C. for three days (positive control: 100 ng/ml BMP2 (Cell signaling)). After the incubation-completed cells were collected, the cells were treated with RNA extraction solution (Easy Blue, Intron) to prepare RNA, and then cDNA was synthesized using RT pre-mix (Intron). PCR was carried out using primers of respective markers (OPG, ALP, BSP) and PCR pre-mix (Intron).\nTarget-specific primer sequences used in PCR for osteogenic differentiation markers were as follows: OPG forward primer sequence, 5′-[sequence]-3′ and OPG reverse primer, 5′-[sequence]-3′ (annealing temperature, 60° C.); ALP forward primer sequence, 5′-[sequence]-3′ and ALP reverse primer, 5′-[sequence]-3′ (annealing temperature, 60° C.); BSP forward primer sequence, 5′-[sequence]-3′ and BSP reverse primer, 5′-[sequence]-3′ (annealing temperature, 60° C.)\n5 μl of PCR product was loaded on 1% agarose gel, followed by electrophoresis, and then the bands were investigated using Gel-Doc."}, "IL-1β": {"test_system": "IL-1β", "assay": "IL-1β ELISA in THP-1 cells treated with TNF-α", "format": "cell-based, human", "conditions": "10 μg/ml pre-treatment 30 minutes, 50 ng/ml TNF-α, 24 hours", "protocol": "The human monocytes, THP-1 cells were seeded on a 24-well plate at a density of 2×10^6 cells/well. After incubation overnight, the cells were pre-treated with the samples at 10 μg/ml for 30 minutes, and treated with 50 ng/ml TNF-α, followed by incubation for 24 hours. The cell incubation medium was obtained, followed by centrifugation at 13,000 rpm for 10 minutes at 4° C., and then the supernatant was separated. ELISA was carried out using IL-1b and IL-8 ELISA kit (R&D system)."}, "Phospho-ERK (pERK)": {"test_system": "Phospho-ERK (pERK)", "assay": "Western blotting of cell signaling material, ERK phosphorylation", "format": "cell-based, human", "conditions": "HFDPC, 1 and 10 μg/ml, 30 minutes and 60 minutes", "protocol": "(§1) In order to observe the changes in the phosphorylation of ERK and the expression of PI3K, which are main signaling materials involved in cell proliferation in the human hair follicle dermal papilla cells, the cells were treated with the peptides of the present invention for 30 minutes and 60 minutes, and then subjected to western blotting using specific antibodies, thereby observing the pERK and PI3K changes. The test was carried out using anti-pERK antibody (Santa Cruz Biotechnology, USA) and anti-pPI3K antibody (Santa Cruz Biotechnology, USA).\n(§2) The cells were treated with the cell lysis buffer to obtain a lysate, followed by protein quantification, and then western blotting was performed with respect to Phospho-ERK (pERK), PI3K, and β-catenin."}, "DKK-1": {"test_system": "DKK-1", "assay": "Western blotting of DKK-1 with hair loss causing hormone DHT", "format": "cell-based, human", "conditions": "HFDPC, 5 μg/ml DHT together with peptide 1 and 10 μg/ml, 48 hours", "protocol": "The cells were treated with DHT and the peptides for 48 hours, and then subjected to western blotting with respect to DKK-1 using specific antibodies, thereby observing the expression of DKK-1.\nThe human hair follicle dermal papilla cells were seeded on a 6-well plate at a density of 1×10^5 cells/well. The cells were stabilized by incubation overnight, and then treated with 5 μg/ml DHT (Sigma Aldrich) together with the peptides at different concentrations (1 μg/ml and 10 μg/ml) for 48 hours. The cells were treated with the cell lysis buffer to obtain a lysate, followed by protein quantification, and then western blotting was performed with respect to DKK-1 using anti-DKK-1 antibody (Santa Cruz Biotechnology, USA)."}, "[2]": {"test_system": "human umbilical vein endothelial cells (HUVEC)", "assay": "Cell proliferation assay (SRB), HUVEC", "format": "cell-based", "conditions": "1, 10 and 50 μg/ml, 72 hours", "protocol": "(§3) In order to observe the cell proliferation effect on human hair follicle dermal papilla cells, human hair follicle germinal matrix cells, and human umbilical vein endothelial cells, which are main hair cells, each type of cells were seeded on a 96-well plate at a density of 3×10^3 cells/well, followed by incubation under conditions of 37° C. and 5% CO2 for 24 hours. After the medium was exchanged with the same culture medium completely excluding serum, the cells were treated with the peptides at different concentrations (1 μg/ml, 10 μg/ml, and 50 μg/ml), followed by incubation under the same conditions for 72 hours. After the incubation supernatant was removed, the cells were immobilized using ethanol, and washed three times with phosphate buffer saline (PBS). The wash solution was removed, and the cells were stained through the treatment with colorimetric SRB solution. After the cells were sufficiently washed with 1% acetic acid, the cells were observed using a microscope to observe the state of living cells. The absorbance was read at UV light of 560 nm, thereby measuring the survival conditions of cells"}, "TNFR": {"test_system": "TNFR", "assay": "Receptor binding assay (TNFR), ELISA", "conditions": "peptide coated 50 μg/25 μl, O.D. 450 nm, positive control TNF-α"}, "RAW264.7 cells": {"test_system": "RAW264.7 cells", "assay": "Proliferation assay of macrophages treated with TNF-α (SRB)", "format": "cell-based, mouse", "conditions": "100 ng/ml TNF-α and 50 μg/ml peptide, 72 hours", "protocol": "The mouse macrophage cell line, raw 264.7 cells were seeded on a 48-well plate at a density of 1×10^4 cells/well. After stabilization for 24 hours, the cells were incubated in a serum-free medium for 6 hours, and then simultaneously treated with 100 ng/ml TNF-α and 50 μg/ml peptide, followed by incubation for 72 hours. After the completion of the incubation, the supernatant was removed and the cells were immobilized using ethanol, and after the cell immobilization was ended, the cells were washed three times with phosphate buffer saline (PBS). After the wash solution was removed, the cells were treated with colorimetric SRB solution, and sufficiently washed with 1% acetic acid. Then, the cells were observed using a microscope to observe the conditions of living cells. The absorbance for the solution decolorized with 20 mM tris was read at UV light of 560 nm, thereby measuring the survival conditions of cells."}, "NF-κB": {"test_system": "NF-κB", "assay": "Western blotting in HaCaT cells, nuclear translocation of NF-κB activated by TNF-α", "format": "cell-based, human", "conditions": "peptide at different concentrations"}, "β-catenin": {"test_system": "β-catenin", "assay": "Western blotting of cell signaling material, β-catenin", "format": "cell-based, human", "conditions": "HFDPC, 1 and 10 μg/ml, 30 minutes and 60 minutes", "protocol": "as §1, §2"}, "bone sialoprotein (BSP)": {"test_system": "bone sialoprotein (BSP)", "assay": "RT-PCR of osteogenic differentiation marker BSP", "format": "cell-based, mouse", "conditions": "MC3T3-E1, three days"}, "MC3T3-E1 cells": {"test_system": "MC3T3-E1 cells", "assay": "Alizarin red staining (mineralization) of MC3T3-E1 cells", "format": "cell-based, mouse", "conditions": "MC3T3-E1, 10 and 50 μg/ml, 14 days", "protocol": "Here, the medium exchange every three days and the treatment with the peptide were repeated (positive control: 30 ng/ml rhBMP2 (Cell signaling)). After the completion of the incubation, the plate well was washed two times with PBS, and the cells were immobilized by the treatment with 70% EtOH for 1 hour. Then, the cells were stained with 40 mM Alizarin red S (pH 4.2, Sigma Aldrich) for 10 minutes. The cells were treated with 10% cetyl pyridinium chloride (dissolved in 10 mM sodium phosphate (pH 7.0)) for 15 minutes, and then the absorbance was read at 560 nm using a spectrophotometer (SpectraMax, Molecular Devices)."}, "Ha3-II and keratin 14": {"test_system": "Ha3-II and keratin 14", "assay": "RT-PCR of keratinocyte differentiation markers in HaCaT cells", "format": "cell-based, human", "conditions": "HaCaT, 0.1, 1 and 10 μg/ml, 24 hours", "protocol": "The cells were treated with the peptides at different concentrations (0.1 μg/ml, 1 μg/ml, and 10 μg/ml), and then incubated in an incubator at 37° C. for 24 hours. […] RT-PCR was carried out using primers of respective markers (Ha3-II and keratin 14) and PCR pre-mix (Intron) to measure the changes in the expression of the markers.\nTarget-specific primer sequences used in PCR for keratinocyte differentiation markers were as follows: Ha3-II forward primer sequence, 5′-[…]-3′ and Ha3-II reverse primer, 5′-[…]-3′ (annealing temperature, 60° C.); Keratin14 forward primer sequence, 5′-[…]-3′ and Keratin14 reverse primer, 5′-[…]-3′ (annealing temperature, 60° C.)"}, "[3]": {"test_system": "human hair follicle germinal matrix cells (HFGMC)", "assay": "Cell proliferation assay (SRB), HFGMC", "format": "cell-based", "conditions": "1, 10 and 50 μg/ml, 72 hours", "protocol": "as §3"}, "[4]": {"test_system": "human hair follicle dermal papilla cells (HFDPC)", "assay": "Cell proliferation assay (SRB), HFDPC", "format": "cell-based", "conditions": "1, 10 and 50 μg/ml, 72 hours", "protocol": "as §3"}},
  "data": [
    {"substance": "NH2-Ala-Cys-Arg-Ser-Ala-Ile-Gly-Arg-Pro-Cys-COOH (H-ACRSAIGRPC-OH; cysteine pairing not given here) [SEQ ID NO: 1]", "values": [
      {"measurement": "expression of alkaline phosphatase (ALP)", "setting": "[1]", "result": "increased"},
      {"measurement": "expression of IL-1β increased by TNF-α treatment", "setting": "IL-1β", "result": "inhibited"},
      {"measurement": "phosphorylation of ERK", "setting": "Phospho-ERK (pERK)", "result": "increased"},
      {"measurement": "expression of DKK-1 increased by DHT", "setting": "DKK-1", "result": "reduced"},
      {"measurement": "cell proliferation, HUVEC", "setting": "[2]", "result": "increased in a concentration-dependent manner"},
      {"measurement": "binding affinity to TNFR", "setting": "TNFR", "result": "high binding affinity"},
      {"measurement": "proliferation of RAW264.7 cells increased with TNF-α treatment", "setting": "RAW264.7 cells", "result": "reduced"},
      {"measurement": "nuclear translocation of NF-κB activated by TNF-α treatment", "setting": "NF-κB", "result": "reduced"},
      {"measurement": "expression of β-catenin", "setting": "β-catenin", "result": "increased"},
      {"measurement": "expression of bone sialoprotein (BSP)", "setting": "bone sialoprotein (BSP)", "result": "increased"},
      {"measurement": "mineralization (Alizarin red staining)", "setting": "MC3T3-E1 cells", "result": "increased"},
      {"measurement": "mRNA expression levels of differentiation markers Ha3-II and keratin 14", "setting": "Ha3-II and keratin 14", "result": "keratinocyte differentiation promoting effect"},
      {"measurement": "cell proliferation, HFGMC", "setting": "[3]", "result": "increased in a concentration-dependent manner"},
      {"measurement": "cell proliferation, HFDPC", "setting": "[4]", "result": "increased in a concentration-dependent manner"}
    ]}
  ]
}
